Assay results taken from patent publication US7169756B2, “Streptogramin antibiotics” (priority 2005, dated 2007).
Converted amounts (≈) assume the structure as drawn. Like-named read-outs stand apart in the source and are kept apart here. Numbered stars: 1 amine (or outer) side, 2 acyl side, 3 side chain; on linkers, the order of the positions; unused ones are H or OH. Bridge positions count the residues as written; N and C are the ends. Square brackets hold non-standard residues; d marks the D form. Peptide text beside a SMILES is read from it. * marks the point of attachment. X1 = O=C1C[C@@H](C(=O)[*:2])N([*:1])C[C@H]1CS[C@@H]1CN2CCC1CC2; NMePhe(4-NMe2) = CN[C@@H](Cc1ccc(N(C)C)cc1)C(=O)O; Picolinoyl(3-OH) = O=C(c1ncccc1O)*; Phg = N[C@H](C(=O)O)c1ccccc1; Orn = NCCC[C@H](N)C(=O)O; dAbu = CC[C@@H](N)C(=O)O; Dap = NC[C@H](N)C(=O)O

What was measured:
Haemophilus influenza = test: disk assay, zone of growth inhibition; assay type: cell-based, Haemophilus influenzae
Experimental: (§1) The antibiotic activity of the peptides synthesized in this study was initially assayed using a disk assay where samples were applied to sterile paper disks placed on a fresh lawn of bacterial culture on appropriate agar plates as required by the organism. These were then incubated for 16 hr at 37° C. and the zone of growth inhibition surrounding the disks recorded. For quantitative assessment of antibiotic activity in liquid culture, the minimal inhibitory concentration (MIC) of peptides was determined by serial dilution studies. The peptides and standard antibiotics were dissolved in DMSO and the final concentration of DMSO in the liquid cultures was 5%. Both S. aureus RN4220 and E. coli BAS901 were able to grow efficiently at this level of DMSO.
(§2) Crude material from the initial synthesis reactions was used to test the potential of the analogues as antibiotics in susceptibility assays where a solution of the compound was placed on a paper disk on a lawn of bacteria. As described above, E. coli BAS901 is deficient in the Imp/OstA protein, an outer membrane protein, involved in cell envelope biogenesis (1, 5). […] These were then incubated for 16 hrs at 37° C. and the zone of growth inhibition surrounding the disks recorded.

[1] = system: Enterococcus faecalis (ATCC 29212); assay type: cell-based
Experimental: as §1
(§3) Crude material from the initial synthesis reactions was used to test the potential of the analogues as antibiotics in susceptibility assays where a solution of the compound was placed on a paper disk on a lawn of bacteria. As described above, E. coli BAS901 is deficient in the Imp/OstA protein, an outer membrane protein, involved in cell envelope biogenesis (1, 5). […] The antibiotic activity of the peptides synthesized in this study was initially assayed using a disk assay where samples were applied to sterile paper disks placed on a fresh lawn of bacterial culture on Tryptic Soya, Luria Broth, or Brain Heart Infusion Agar plates. These were then incubated for 16 hrs at 37° C. and the zone of growth inhibition surrounding the disks recorded.

[2] = system: Staphylococcus epidermidis (ATCC 12228); assay type: cell-based
Experimental: as §1, §3

[3] = system: Streptococcus pneumoniae (ATCC 6305); assay type: cell-based
Experimental: as §1, §3

[4] = system: Staphylococcus epidermidis (ATCC 14990); assay type: cell-based
Experimental: as §1, §3

[5] = system: Streptococcus pneumoniae (ATCC 49619); test: microbe, parasite or virus in culture; assay type: cell-based
Experimental: as §1

[6] = system: Staphylococcus aureus RN4220/pJIM2246; test: microbe, parasite or virus in culture; assay type: cell-based
Experimental: as §1

[7] = system: Staphylococcus aureus RN4220/pJIM2246Ωvgb; test: microbe, parasite or virus in culture; assay type: cell-based
Experimental: as §1

[8] = system: Enterococcus faecalis (ATCC 29212); test: microbe, parasite or virus in culture; assay type: cell-based
Experimental: as §1

[9] = system: Staphylococcus aureus (ATCC 29213); test: microbe, parasite or virus in culture; assay type: cell-based
Experimental: as §1

[10] = system: Staphylococcus epidermidis (ATCC 12228); test: microbe, parasite or virus in culture; assay type: cell-based
Experimental: as §1

[11] = system: Staphylococcus aureus RN4220/pJIM2246ΩermB; test: microbe, parasite or virus in culture; assay type: cell-based
Experimental: as §1

[12] = system: Staphylococcus saprophyticus (ATCC 15305); test: microbe, parasite or virus in culture; assay type: cell-based
Experimental: as §1

[13] = system: Streptococcus pneumoniae (ATCC 6305); test: microbe, parasite or virus in culture; assay type: cell-based
Experimental: as §1

[14] = system: Staphylococcus epidermidis (ATCC 14990); test: microbe, parasite or virus in culture; assay type: cell-based
Experimental: as §1

[15] = system: Streptococcus pneumoniae (ATCC 49619); test: disk assay, zone of growth inhibition; assay type: cell-based
Experimental: as §1, §3

[16] = system: Staphylococcus aureus (ATCC 25923); test: disk assay, zone of growth inhibition; assay type: cell-based
Experimental: as §1, §3

[17] = system: Staphylococcus aureus (ATCC 29213); test: disk assay, zone of growth inhibition; assay type: cell-based
Experimental: as §1, §3

[18] = system: Staphylococcus aureus (ATCC 43300); test: disk assay, zone of growth inhibition; assay type: cell-based; details: methicillin resistant, oxacillin resistant
Experimental: as §1, §3

[19] = system: Salmonella enterica (ATCC 14028); test: disk assay, zone of growth inhibition; assay type: cell-based; details: serovar Typhimurium
Experimental: as §1, §3

[20] = system: Staphylococcus aureus (ATCC 49476); test: disk assay, zone of growth inhibition; assay type: cell-based
Experimental: as §1, §3

[21] = system: Enterococcus faecalis (ATCC 51299); test: disk assay, zone of growth inhibition; assay type: cell-based; details: vancomycin, aminoglycoside resistant
Experimental: as §1, §3

in vitro translation = test: In Vitro Translation Assay; assay type: biochemical; details: FIG. 6
Experimental: Inhibition of translation was monitored using an ActivePro In Vitro Translation Kit from Ambion. Briefly, a reaction mixture was prepared as per the manufacturer's instructions that contained all of the constituents necessary (including [^35S]-methionine) except for DNA template. These mixtures were then preincubated for 15 min at room temperature in the presence or absence of various antibiotics. Subsequent to the preincubation period, a control template containing a chloramphenicol acetyltransferase gene under control of a bacteriophage T7 promoter was added and the reaction carried out for 1 hr at 37° C. Due to the insoluble nature of some of the antibiotics, the final DMSO concentration in each reaction including controls was maintained at 5% (v/v). Aliquots were taken after 1 hr, and separated on SDS polyacrylamide gels. The efficiency of translation of ^35S-labeled […] was analyzed and quantified using a Typhoon 9200 variable mode imager (Image-Quant 5.2 software).

B. subtilis 168 = assay type: cell-based, Bacillus subtilis
Experimental: as §1, §2

E. coli (ATCC 25922) = test: disk assay, zone of growth inhibition; assay type: cell-based, Escherichia coli; details: wild-type
Experimental: as §1, §2

E. coli ribosomes = details: fluorescence titration, purified intact E. coli ribosomes

`CC[C@H]1NC(=O)[C@@H](NC(=O)c2ncccc2O)[C@@H](C)OC(=O)[C@H](c2ccccc2)NC(=O)[C@@H]2CC(=O)[C@H](CS[C@@H]3CN4CCC3CC4)CN2C(=O)[C@H](Cc2ccc(N(C)C)cc2)N(C)C(=O)[C@@H]2CCCN2C1=O` [Quinupristin, quinupristin, reference compound] ({Picolinoyl(3-OH)}-T[dAbu]P[NMePhe(4-NMe2)][X1][Phg]; ester 1-C) was tested, and the “Zone of Inhibition” value (Haemophilus influenza) was “n.i”, the “Zone of Inhibition” value ([1]; Enterococcus faecalis (ATCC 29212), disk assay) was 1.8 cm and the “Zone of Inhibition” value ([2]; Staphylococcus epidermidis (ATCC 12228), disk assay) was 3.4 cm. The “Zone of Inhibition” value ([3]; Streptococcus pneumoniae (ATCC 6305), disk assay) was 2.1 cm, the “Zone of Inhibition” value ([4]; Staphylococcus epidermidis (ATCC 14990), disk assay) was 3.0 cm and the MIC ([5]; ATCC49619, Streptococcus pneumoniae (ATCC 49619), read-out: MIC) was 0.5 µg/mL (≈ 0.489 µM). It also gave an MIC [6] of 2 µg/mL (≈ 1.96 µM), an MIC ([7]; Staphylococcus aureus) of 8 µg/mL (≈ 7.83 µM) and an MIC ([8]; ATCC29212, Enterococcus faecalis (ATCC 29212), read-out: MIC) of 8 µg/mL (≈ 7.83 µM). For the same compound, the MIC ([9]; ATCC29213, read-out: MIC) was 4 µg/mL (≈ 3.91 µM), the MIC ([10]; ATCC12228, Staphylococcus epidermidis (ATCC 12228), read-out: MIC) was 0.5 µg/mL (≈ 0.489 µM) and the MIC ([11]; Staphylococcus aureus) was 8 µg/mL (≈ 7.83 µM). It also gave an MIC ([12]; ATCC15305, Staphylococcus saprophyticus (ATCC 15305), read-out: MIC) of 8 µg/mL (≈ 7.83 µM), an MIC ([13]; ATCC6305, Streptococcus pneumoniae (ATCC 6305), read-out: MIC) of 1 µg/mL (≈ 0.978 µM) and an MIC ([14]; ATCC14990, Staphylococcus epidermidis (ATCC 14990), read-out: MIC) of 1 µg/mL (≈ 0.978 µM). For the same compound, the “Zone of Inhibition” value [15] was 2.0 cm, the “Zone of Inhibition” value [16] was 2.2 cm and the “Zone of Inhibition” value [17] was 2.3 cm. The “Zone of Inhibition” value [18] was “n.i”, the “Zone of Inhibition” value [19] was “n.i” and the “Zone of Inhibition” value [20] was 2.6 cm. The “Zone of Inhibition” value [21] was “n.i”, the “inhibition of in vitro translation” value (in vitro translation; 15 min preincubation, 1 hr at 37° C., 5% DMSO, concentration not given) was “did block” and the “Zone of Inhibition” value (B. subtilis 168; B. subtilis 168, disk assay) was 2.2 cm. For the same compound, the “Zone of Inhibition” value (E. coli (ATCC 25922)) was “n.i” and the “ribosome binding (increase of Hpa fluorescence)” value (E. coli ribosomes) was “did support ribosome binding”.
`CC(C)C[C@@H]1NC(=O)[C@H](CCCN)NC(=O)[C@H]([C@@H](C)O)NC(=O)[C@@H](NC(=O)c2ncccc2O)CNC(=O)[C@H](Cc2ccccc2)NC(=O)[C@@H]2CCCN2C(=O)[C@@H](Cc2ccccc2)NC1=O` [Compound 5] ({Picolinoyl(3-OH)}-[Dap]T[Orn]L[dF]PF; lactam 1-C) was tested, and the “Zone of Inhibition” value (Haemophilus influenza) was “n.i”, the “Zone of Inhibition” value ([1]; ATCC 29212, 16 h) was 0.75 cm and the “Zone of Inhibition” value ([2]; ATCC 12228, 16 h) was 0.85 cm. The “Zone of Inhibition” value ([3]; ATCC 6305, 16 h) was 0.8 cm, the “Zone of Inhibition” value ([4]; ATCC 14990, 16 h) was 0.75 cm and the MIC ([5]; ATCC 49619, 16 h) was 128 µg/mL (≈ 138 µM). It also gave an MIC [6] of 256 µg/mL (≈ 276 µM), an MIC ([7]; Staphylococcus aureus RN4220/pJIM2246Ωvgb) of 256 µg/mL (≈ 276 µM) and an MIC ([8]; ATCC 29212, 16 h) of 128 µg/mL (≈ 138 µM). For the same compound, the MIC [9] was 256 µg/mL (≈ 276 µM), the MIC ([10]; ATCC 12228, 16 h) was 64 µg/mL (≈ 69 µM) and the MIC ([11]; Staphylococcus aureus RN4220/pJIM2246ΩermB) was 256 µg/mL (≈ 276 µM). The MIC ([12]; ATCC 15305, 16 h) was 64 µg/mL (≈ 69 µM), the MIC ([13]; ATCC 6305, 16 h) was 32 µg/mL (≈ 34.5 µM) and the MIC ([14]; ATCC 14990, 16 h) was 64 µg/mL (≈ 69 µM). For the same compound, the “Zone of Inhibition” value [15] was “n.i”, the “Zone of Inhibition” value [16] was “n.i” and the “Zone of Inhibition” value [17] was “n.i”. The “Zone of Inhibition” value [18] was “n.i”, the “Zone of Inhibition” value [19] was “n.i” and the “Zone of Inhibition” value [20] was “n.i”. The “Zone of Inhibition” value [21] was “n.i”, the “inhibition of in vitro translation” value (in vitro translation; at 250 μg/ml) was “did not” and the “Zone of Inhibition” value (B. subtilis 168; 168, 16 h) was 0.8 cm. For the same compound, the “Zone of Inhibition” value (E. coli (ATCC 25922)) was “n.i” and the “ribosome binding (increase of Hpa fluorescence)” value (E. coli ribosomes) was “did not appear to interact with the ribosome”.
